How the values were obtained:
[1] = Polymer dynamic viscoelasticity (DMA, tension mode) of the cured product; assay type: physicochemical; conditions: for Tg (glass-transition temperature): maximum of tan δ, frequency 11.0 Hz
Procedure: The obtained monomer was homogenized with 0.5 parts by mass of PERHEXA HC (producer: NOF Corporation) and 0.2 mL of acetone added thereto, was subsequently poured into a 10 mm×40 mm×0.5 mm silicone rubber sheet mold prepared on an aluminum plate, and was transferred into a vacuum oven. Acetone solvent was first vaporized while maintaining the temperature at room temperature and the pressure at 20 cmHg to 40 cmHg, and thereafter the pressure was restored to normal pressure and curing was performed for 5 hours at 140° C. to prepare a cured product. The cured product that was prepared was evaluated by measurement as described below using a tension mode of a dynamic mechanical analyzer (DMA).
The cured product was set in the dynamic mechanical analyzer (producer: TA Instruments, product name: RSA3) and the device was used to measure the storage modulus (E′) in a temperature range of from 30° C. to 300° C. with a heating rate of 10.0° C./min. Furthermore, the temperature corresponding to a maximum value of tan δ (loss modulus/storage modulus) obtained under a measurement condition of a frequency of 11.0 Hz was taken to be the glass-transition temperature (Tg).

[2] = Volume change upon polymerization (monomer and polymer density by dry automatic pycnometer); assay type: physicochemical; conditions: for Volume change: ((Monomer density)−(Polymer density))/(Monomer density)×100, positive = expansion, negative = shrinkage; for Polymer density: after polymerization; for Polymer density / Monomer density: 25° C.; for Monomer density: prior to polymerization
Procedure: Volume change relative to monomer volume refers to the change in volume of the polymer relative to the volume of the monomer or monomers that are constituent components of the polymer. This volume change relative to monomer volume is obtained through the following equation by measuring the density of the monomer(s) at 25° C. prior to polymerization (monomer density) and the density of the polymer at 25° C. after polymerization (polymer density). ((Monomer density)−(Polymer density))/(Monomer density)×100(%)
First, polymerization of the obtained monomer (compound represented by structural formula (6)) was performed as follows.
A freezing ampoule (20 mL) was charged with 4.03 mg of AIBN (4 mol %), 440.2 mg (0.61 mmol) of Ad-MVCP, and 0.267 g (0.31 mL) of toluene, and the monomer was dissolved. Thereafter, freeze drying was performed three times and dissolved oxygen was removed. The freezing ampoule was immersed in an oil bath and was heated for 48 hours at 60° C. to polymerize the monomer. After polymerization, the freezing ampoule was cooled by liquid nitrogen to quench radicals. Next, 50 mL of toluene was added to the freezing ampoule in order to dissolve undissolved components other than the polymer and suction filtration was then performed. Polymer filtered onto filter paper as a result was washed with toluene and acetone, was vacuum dried for 48 hours at 100° C., and was collected as a white solid polymer. The collected polymer was used as an evaluation sample.
The volume change upon polymerization was calculated using the following equation by measuring the monomer density and polymer density of each sample prepared by the procedure described above using a dry automatic pycnometer (AccuPyc II 1340 produced by Shimadzu Corporation). ((Monomer density)−(Polymer density))/(Monomer density)×100(%)
A positive calculated value indicates volume expansion whereas a negative calculated value indicates volume shrinkage.
Note that in Comparative Example 3, polymerization of the monomer was performed by bulk polymerization based on the aforementioned document. A freezing ampoule (20 mL) was charged with 15.8 mg (0.096 mmol) of AIBN and 1.000 g (2.41 mmol) of Me-MVCP, and the monomer was dissolved. Thereafter, freeze drying was performed three times and dissolved oxygen was removed. The freezing ampoule was immersed in an oil bath and was heated for 48 hours at 60° C. to polymerize the monomer. After polymerization, the freezing ampoule was cooled by liquid nitrogen to quench radicals. Next, 50 mL of toluene was added to the freezing ampoule in order to dissolve undissolved components other than the polymer and suction filtration was then performed. Polymer filtered onto filter paper as a result was sufficiently washed with toluene and acetone, was vacuum dried for 48 hours while heating at 100° C., and was collected as a white solid polymer. The collected polymer was used as an evaluation sample.
Note that in Example 2, 0.159 g (0.479 mmol) of DCP, 0.341 g (0.479 mmol) of Ad-MVCP, and 0.2 mL of toluene (dehydrated) were added into an ampoule with a stirrer, were heated to 70° C., and were homogenized by stirring. After performing cooling to room temperature, a dilute solution of AIBN (6.3 mg (0.038 mmol) of AIBN dissolved in 0.28 mL of toluene (dehydrated)) was added to the ampoule. The ampoule was sealed using a gas burner after performing freeze degassing of the ampoule. The ampoule was immersed in an oil bath and a reaction was carried out for 48 hours at 60° C. After the reaction, the ampoule was immersed in liquid nitrogen and a polymer was collected. The resultant polymer was sufficiently washed with toluene and acetone and was vacuum dried for 48 hours while heating at 100° C., and a white solid polymer was collected. The collected polymer was used as an evaluation sample.
Ad-MVCP in an amount of 0.153 g (0.215 mmol) and DCP in an amount of 0.072 g (0.216 mmol) were dissolved and homogenized in 0.3 mL of acetone. […]

[3] = Monomer solubility in various solvents; assay type: physicochemical; conditions: 40 mg monomer in 1.0 mL
Procedure: The solubility of 40 mg of the obtained monomer in 1.0 mL of various solvents (methyl ethyl ketone (MEK), acetone, propylene glycol monomethyl ether acetate (PGMEA), and cyclohexanone) was evaluated.

[4] = Polymer heat resistance (thermogravimetric analyzer); assay type: physicochemical; conditions: homopolymer
Procedure: Heat resistance of the polymer used in (i) evaluation of volume change upon polymerization was evaluated using a thermogravimetric analyzer (producer: Seiko Instruments Incorporated, product name: EXSTAR6000). Furthermore, thermogravimetric change of the obtained polymer was measured to obtain a temperature at which a 10% reduction in weight was reached and the 10% weight loss temperature was taken to be the pyrolysis temperature (Td^10).

[5] = background statement; cited from earlier work

Row | Compound | E′ (storage modulus) ([1]; 50° C., 5 hours at 140° C.) | E′ (storage modulus) ([1]; 120° C.) | E′ (storage modulus) ([1]; 140° C.) | E′ (storage modulus) ([1]; 160° C.) | Tg (glass-transition temperature) [1] | Volume change [2] | Polymer density [2] | Monomer density [2] | Solubility ([3]; Acetone) | Solubility ([3]; Cyclohexanone) | Solubility ([3]; MEK) | Solubility ([3]; PGMEA) | Td^10 (pyrolysis temperature, 10% weight loss temperature) [4] | solubility in solvents such as acetone [5]
1 | tricyclodecane dimethanol dimethacrylate [Comparative Example 1] | 1.70 × 10^9 Pa | 9.60 × 10^8 Pa | 8.00 × 10^8 Pa | 6.60 × 10^8 Pa | >271.1 °C | −8.5% | 1.194 g/mL | 1.101 g/mL | – | – | – | – | – | –
2 | C=CC1CC1(C(=O)OC12CC3CC(CC(C3)C1)C2)C(=O)OC12CC3CC(C1)CC(OC(=O)C1(C(=O)OC45CC6CC(CC(C6)C4)C5)CC1C=C)(C3)C2 (stereo not shown) [Example 1, 1,3-bis[(1-adamantyloxycarbonyl-2-vinylcyclopropane-1-yl)carbonyloxy]adamantane] | 1.10 × 10^9 Pa | 7.40 × 10^8 Pa | 6.60 × 10^8 Pa | 7.00 × 10^8 Pa | 235 °C | +6.1% | 1.198 g/mL | 1.275 g/mL | Excellent | Excellent | Excellent | Excellent | 399 °C | –
3 | C=CC1CC1(C(=O)OC12CC3CC(CC(C3)C1)C2)C(=O)OC12CC3CC(CC(C3)C1)C2 (stereo not shown) [Comparative Example 2, 1,1-bis[(1-adamantyloxy)carbonyl]-2-vinylcyclopropane] | – | – | – | – | 23 °C | +4.3% | 1.127 g/mL | 1.178 g/mL | Poor | Mediocre | Poor | Poor | 361 °C | poor
